# Results from the CheMixHub viscosity set.
# ± gives the uncertainty stated by the source.
# Legend:
# [1] = xn = mol fraction of the nth substance listed
structure (smiles),measurement,setting,value
C=C(C)C(=O)OCCCC + C1CCCCC1,viscosity,"[1]; 298.15 K, 101 kPa, x1 = 0.056",0.866 ± 0.087 mPa·s
same,viscosity,"[1]; 298.15 K, 101 kPa, x1 = 0.1555",0.835 ± 0.084 mPa·s
same,viscosity,"[1]; 298.15 K, 101 kPa, x1 = 0.2562",0.812 ± 0.082 mPa·s
same,viscosity,"[1]; 298.15 K, 101 kPa, x1 = 0.3534",0.797 ± 0.08 mPa·s
same,viscosity,"[1]; 298.15 K, 101 kPa, x1 = 0.4548",0.789 ± 0.079 mPa·s
same,viscosity,"[1]; 298.15 K, 101 kPa, x1 = 0.4924",0.788 ± 0.079 mPa·s
same,viscosity,"[1]; 298.15 K, 101 kPa, x1 = 0.5528",0.788 ± 0.079 mPa·s
same,viscosity,"[1]; 298.15 K, 101 kPa, x1 = 0.6497",0.794 ± 0.08 mPa·s
same,viscosity,"[1]; 298.15 K, 101 kPa, x1 = 0.7645",0.81 ± 0.081 mPa·s
same,viscosity,"[1]; 298.15 K, 101 kPa, x1 = 0.8529",0.83 ± 0.083 mPa·s
same,viscosity,"[1]; 298.15 K, 101 kPa, x1 = 0.9568",0.861 ± 0.086 mPa·s
same,viscosity,"[1]; 308.15 K, 101 kPa, x1 = 0.056",0.737 ± 0.074 mPa·s
same,viscosity,"[1]; 308.15 K, 101 kPa, x1 = 0.1555",0.711 ± 0.072 mPa·s
same,viscosity,"[1]; 308.15 K, 101 kPa, x1 = 0.2562",0.692 ± 0.07 mPa·s
same,viscosity,"[1]; 308.15 K, 101 kPa, x1 = 0.3534",0.68 ± 0.068 mPa·s
same,viscosity,"[1]; 308.15 K, 101 kPa, x1 = 0.4548",0.673 ± 0.068 mPa·s
same,viscosity,"[1]; 308.15 K, 101 kPa, x1 = 0.4924",0.673 ± 0.068 mPa·s
same,viscosity,"[1]; 308.15 K, 101 kPa, x1 = 0.5528",0.673 ± 0.068 mPa·s
same,viscosity,"[1]; 308.15 K, 101 kPa, x1 = 0.6497",0.678 ± 0.068 mPa·s
same,viscosity,"[1]; 308.15 K, 101 kPa, x1 = 0.7645",0.692 ± 0.069 mPa·s
same,viscosity,"[1]; 308.15 K, 101 kPa, x1 = 0.8529",0.708 ± 0.071 mPa·s
same,viscosity,"[1]; 308.15 K, 101 kPa, x1 = 0.9568",0.735 ± 0.074 mPa·s
NCc1ccccc1 + COc1ccccc1,viscosity,"[1]; 303.15 K, 101 kPa, x1 = 0.1",0.939 ± 0.02 mPa·s
same,viscosity,"[1]; 303.15 K, 101 kPa, x1 = 0.2",0.975 ± 0.021 mPa·s
same,viscosity,"[1]; 303.15 K, 101 kPa, x1 = 0.3",1.016 ± 0.022 mPa·s
same,viscosity,"[1]; 303.15 K, 101 kPa, x1 = 0.3999",1.061 ± 0.023 mPa·s
same,viscosity,"[1]; 303.15 K, 101 kPa, x1 = 0.4999",1.11 ± 0.024 mPa·s
same,viscosity,"[1]; 303.15 K, 101 kPa, x1 = 0.5999",1.163 ± 0.025 mPa·s
same,viscosity,"[1]; 303.15 K, 101 kPa, x1 = 0.7",1.22 ± 0.026 mPa·s
same,viscosity,"[1]; 303.15 K, 101 kPa, x1 = 0.8",1.281 ± 0.027 mPa·s
same,viscosity,"[1]; 303.15 K, 101 kPa, x1 = 0.9",1.346 ± 0.029 mPa·s
CCCCCCCCCc1ccccc1,viscosity,"293.15 K, 102 kPa",3.14 ± 0.03 mPa·s
same,viscosity,"303.15 K, 102 kPa",2.51 ± 0.03 mPa·s
same,viscosity,"313.15 K, 100 kPa",2.094 ± 0.043 mPa·s
same,viscosity,"313.15 K, 102 kPa",2.05 ± 0.03 mPa·s
same,viscosity,"323.15 K, 102 kPa",1.72 ± 0.03 mPa·s
CCCCCCCCCCCO + CCCCCCCCCO,viscosity,"[1]; 298.15 K, 101 kPa, x2 = 0.7995",10.35 ± 0.3 mPa·s
same,viscosity,"[1]; 298.15 K, 101.8 kPa, x2 = 0.116",13.57 ± 0.4 mPa·s
same,viscosity,"[1]; 298.15 K, 101.8 kPa, x2 = 0.3375",12.52 ± 0.39 mPa·s
same,viscosity,"[1]; 298.15 K, 101.8 kPa, x2 = 0.9152",9.874 ± 0.37 mPa·s
same,viscosity,"[1]; 308.15 K, 101.8 kPa, x2 = 0.116",9.384 ± 0.39 mPa·s
same,viscosity,"[1]; 308.15 K, 101.8 kPa, x2 = 0.3375",8.667 ± 0.35 mPa·s
same,viscosity,"[1]; 308.15 K, 101.8 kPa, x2 = 0.5442",8.041 ± 0.35 mPa·s
same,viscosity,"[1]; 308.15 K, 101.8 kPa, x2 = 0.7372",7.476 ± 0.35 mPa·s
same,viscosity,"[1]; 308.15 K, 101.8 kPa, x2 = 0.9152",6.965 ± 0.33 mPa·s
same,viscosity,"[1]; 318.15 K, 101.8 kPa, x2 = 0.116",6.631 ± 0.35 mPa·s
same,viscosity,"[1]; 318.15 K, 101.8 kPa, x2 = 0.3375",6.157 ± 0.34 mPa·s
same,viscosity,"[1]; 318.15 K, 101.8 kPa, x2 = 0.5442",5.752 ± 0.33 mPa·s
same,viscosity,"[1]; 318.15 K, 101.8 kPa, x2 = 0.7372",5.366 ± 0.33 mPa·s
same,viscosity,"[1]; 318.15 K, 101.8 kPa, x2 = 0.9152",5.017 ± 0.33 mPa·s
